{"source": "patent US6900193B1", "about": "“Structural modification of 19-norprogesterone I: 17-α-substituted-11-β-substituted-4-aryl and 21-substituted 19-norpregnadienedione as new antiprogestational agents” (The United States of America as represented by the …, priority 1996, dated 2005)", "key": {"[1]": {"assay": "Lability to base under reverse-phase HPLC conditions", "assay_type": "physicochemical", "conditions": "MeOH/H2O/Et3N reverse-phase conditions; converts to compound 8, also at pH 7.0", "protocol": "Under nitrogen, a mixture of the crude ethoxyethylidenedioxy compound (18, 0.56 g., 1.11 mmol), 0.2 M NaOAc (3 mL, […]) in methanol (30 mL) was heated to reflux. Monitoring by TLC (5% acetone/CH2Cl2) indicated a complete reaction in 3.5 hours. The methanol was removed in vacuo under a stream of nitrogen, the residue diluted with water (˜50 mL) and extracted with CH2Cl2 (3×). The organic fractions were combined, washed with H2O (2×) and brine (1×), dried over Na2SO4, filtered and concentrated in vacuo to give 0.56 g of the crude 21-ol, 17α-acetate (41) as a foam. Purification of this material via flash chromatography (7.5% acetone/CH2Cl2) followed by trituration with ether/pentane gave 0.32 g of the target compound, 21-OH, 17α-acetate as an off-white solid in […]; m.p.=205-210° C. The NMR indicated this product contains 5.3% of the 17α-OH, 21-OAc (8) isomer as a contaminant. […] This transesterification occurs at an appreciate rate even when the solvent system is buffered at pH 7.0 with phosphoric acid. The purity of the acetate mixture (8 and 41) was ascertained at >99% by normal phase HPLC analysis (Waters Associates μPorasil Silica using CH3CN/CH2Cl2 (40:60) with a flow rate of 2 mL/min at λ=302 nm). […] The presence of the 17α-OH, 21-OAc isomer (8) to the extent of 5.3% could be detected by the appearance of two doublets, one at 4.88 and the other at 5.11, both with J=18.3 Hz."}, "Cushing's syndrome": {"system": "Cushing's syndrome", "conditions": "cited from earlier work"}, "ovulation [2]": {"system": "ovulation", "conditions": "Dao, et al.; cited from earlier work"}, "[3]": {"system": "estrogen-insensitive T47Dco human breast cancer cells", "conditions": "Horwitz 1985; cited from earlier work"}, "implantation [4]": {"system": "implantation", "conditions": "man; cited from earlier work"}, "ovulation [5]": {"system": "ovulation", "conditions": "Baulieu, et al.; cited from earlier work"}, "[6]": {"system": "early stages of pregnancy", "conditions": "administered during the early stages of pregnancy; cited from earlier work"}, "implantation [7]": {"system": "implantation", "conditions": "guinea pig; cited from earlier work"}, "implantation [8]": {"system": "implantation", "conditions": "rat; cited from earlier work"}, "[9]": {"target": "T1, human isoform A progesterone receptor (Homo sapiens, UniProt P06401)", "T1 sequence (P06401 1-769 isoform P06401-2)": "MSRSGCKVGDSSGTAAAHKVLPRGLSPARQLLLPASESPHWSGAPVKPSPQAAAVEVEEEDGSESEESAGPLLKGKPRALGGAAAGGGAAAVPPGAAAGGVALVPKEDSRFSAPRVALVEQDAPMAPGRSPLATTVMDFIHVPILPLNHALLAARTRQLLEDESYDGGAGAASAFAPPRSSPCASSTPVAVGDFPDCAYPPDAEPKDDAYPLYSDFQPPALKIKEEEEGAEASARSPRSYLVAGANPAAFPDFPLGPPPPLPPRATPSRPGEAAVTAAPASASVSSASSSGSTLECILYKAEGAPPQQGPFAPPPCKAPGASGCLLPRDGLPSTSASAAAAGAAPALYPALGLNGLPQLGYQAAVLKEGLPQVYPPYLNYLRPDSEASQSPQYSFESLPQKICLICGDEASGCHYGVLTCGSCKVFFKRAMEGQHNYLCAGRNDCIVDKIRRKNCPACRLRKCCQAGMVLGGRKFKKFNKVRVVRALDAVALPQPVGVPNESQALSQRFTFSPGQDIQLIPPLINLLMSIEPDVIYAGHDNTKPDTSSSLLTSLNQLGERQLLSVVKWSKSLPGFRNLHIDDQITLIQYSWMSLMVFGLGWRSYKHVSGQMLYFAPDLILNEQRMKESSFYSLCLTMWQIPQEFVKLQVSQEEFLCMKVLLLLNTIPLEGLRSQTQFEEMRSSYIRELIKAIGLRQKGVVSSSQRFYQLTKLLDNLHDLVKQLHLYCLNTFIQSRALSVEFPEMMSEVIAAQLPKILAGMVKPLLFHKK", "assay": "Relative binding affinity, human isoform A progesterone receptor", "conditions": "for BINDING AFFINITY Progester, figure in ( ): relative binding affinity of the human isoform A progesterone receptor: Table 2, figure in parentheses"}, "[10]": {"conditions": "in vivo"}, "[11]": {"system": "pregnancy (number and condition of conceptuses)", "assay": "Postcoital test", "assay_type": "in vivo, rat", "conditions": "oral; for Postcoital MED100: rat, days 0-3; for postcoital contraceptive activity relative to the standard, in words: days 0-3 of gestation, versus 69B"}, "[12]": {"system": "follicular development, ovulation, endometrial maturation", "assay": "Single oral dose in human subjects (unpublished data)", "assay_type": "in vivo"}, "ovulation [13]": {"system": "ovulation", "assay": "Antiovulatory test", "assay_type": "in vivo, rat", "conditions": "for Antiovulatory MED100: oral, rat, single dose at noon on day of proestrus", "protocol": "Antiovulatory Test […] female rats of the Sprague-Dawley strain weighing 200 to 250 g were maintained under standard laboratory conditions, 14 hours of light and 10 hours of darkness each day. Vaginal washings were obtained daily and evaluated microscopically to establish the estrous cycle of each animal. […] Each dose group consisted of eight rats and one group served as the vehicle control. Animals were dosed at noon on the day of proestrus and sacrificed 24 hours later when ova can usually be visualized in the distended ampulla of the oviduct using a dissecting microscope. The oviducts were excised, an incision made in the distended ampulla and the ova teased out in a drop of water on a microscope slide so that the number shed could be counted. Historically, control animals shed between 12 and 14 ova during each estrous cycle."}}, "note": "Entries after “also recorded” stand apart in the source; their conditions may differ. Like-named read-outs stand apart in the source and are kept apart here.", "data": [{"smiles": "CC(=O)O[C@]1(C(=O)CO)CCC2C3CCC4=CC(=O)CCC4=C3C(c3ccc(N(C)C)cc3)C[C@@]21C", "note": "(stereo partly drawn) [Compound 41, 17α-acetoxy-21-hydroxy-11β-[4-(N,N-dimethylamino)phenyl]-19-norpregna-4,9-diene-3,20-dione]", "values": [{"measurement": "stability to base", "setting": "[1]", "result": "extremely labile to base"}]}, {"smiles": "CC#C[C@]1(O)CC[C@H]2[C@@H]3CCC4=CC(=O)CCC4=C3[C@@H](c3ccc(N(C)C)cc3)C[C@@]21C", "note": "[mifepristone]", "values": [{"measurement": "treatment of Cushing's syndrome", "setting": "Cushing's syndrome; Nieman, et al. 1985", "result": "successfully used"}, {"measurement": "antiglucocorticoid activity", "setting": "Cushing's syndrome; in vivo", "result": "very significant antiglucocorticoid activity"}, {"measurement": "inhibition of ovulation in the rat", "setting": "ovulation [2]", "result": "inhibit ovulation"}, {"measurement": "growth inhibition of T47Dco human breast cancer cells", "setting": "[3]", "result": "growth-inhibitory properties"}, {"measurement": "prevention of implantation", "setting": "implantation [4]", "result": "prevent implantation"}, {"measurement": "effect on ovulation in human subjects", "setting": "ovulation [5]", "result": "affect ovulation"}, {"measurement": "antiprogestational/contragestative effect", "setting": "[6]", "result": "effective antiprogestational/contragestative agent"}, {"measurement": "prevention of implantation", "setting": "implantation [7]", "result": "prevent implantation"}, {"measurement": "prevention of implantation", "setting": "implantation [8]", "result": "prevent implantation"}]}, {"smiles": "CC(=O)O[C@]1(C(C)=O)CC[C@H]2[C@@H]3CCC4=CC(=O)CCC4=C3[C@@H](c3ccc(N(C)C)cc3)C[C@@]21C", "note": "[Compound 69B, 17α-acetoxy-11β-(4-N,N-dimethylaminophenyl)-19-norpregna-4,9-diene-3,20-dione, reference compound]", "values": [{"measurement": "BINDING AFFINITY Progester, figure in ( ): relative binding affinity of the human isoform A progesterone receptor", "setting": "[9]", "result": 234}, {"measurement": "blood levels following oral administration", "setting": "[10]", "result": "Higher blood levels"}, {"measurement": "inhibition of ovulation in the rat", "setting": "ovulation [2]", "result": "inhibit ovulation"}, {"measurement": "Postcoital MED100", "setting": "[11]", "result": 2, "unit": "mg/day"}, {"measurement": "effect in human subjects following a single oral dose", "setting": "[12]", "result": "affect both follicular development and ovulation as well as endometrial maturation"}, {"measurement": "Antiovulatory MED100", "setting": "ovulation [13]", "result": 1, "unit": "mg"}]}, {"smiles": "CC(=O)O[C@]1(C(C)=O)CC[C@H]2[C@@H]3CCC4=CC(=O)CCC4=C3[C@@H](c3ccc(N4CCCCC4)cc3)C[C@@]21C", "note": "[Compound 71, 17α-Acetoxy-11β-[4(N-Piperidino)phenyl]-19-norpregna-4,9-diene-3,20-dione]", "values": [{"measurement": "BINDING AFFINITY Progester, figure in ( ): relative binding affinity of the human isoform A progesterone receptor", "setting": "[9]", "result": 203}, {"measurement": "postcoital contraceptive activity relative to the standard, in words", "setting": "[11]", "result": "about four times the postcoital contraceptive activity of the standard; also recorded: four times as potent as the standard"}, {"measurement": "Postcoital MED100", "setting": "[11]", "result": 0.5, "unit": "mg/day"}, {"measurement": "Antiovulatory MED100", "setting": "ovulation [13]", "result": ">16", "unit": "mg"}, {"measurement": "antiovulatory activity relative to the standard", "setting": "ovulation [13]; percent of the activity of 69B", "result": "about 5%"}, {"measurement": "dose level at which not fully active, antiovulatory", "setting": "ovulation [13]; versus 69B", "result": "> 16 times the MED100 for the standard"}]}, {"smiles": "COCC(=O)C1(OC(C)=O)CCC2C3CCC4=CC(=O)CCC4=C3C(c3ccc(N4CCCCC4)cc3)CC21C", "note": "(stereo not drawn) [Compound 123a, 17α-Acetoxy-1113-[4-(N-piperidino)phenyl]-21-methoxy-19-norpregna-4,9-diene-3,20-dione]", "values": [{"measurement": "BINDING AFFINITY Progester, figure in ( ): relative binding affinity of the human isoform A progesterone receptor", "setting": "[9]", "result": 140}]}, {"smiles": "COCC(=O)[C@@]1(OC)CC[C@H]2[C@@H]3CCC4=CC(=O)CCC4=C3[C@@H](c3ccc(N(C)C)cc3)C[C@@]21C", "note": "[Compound 113a, 17α,21-Dimethoxy-11β-[4-(N,N-dimethylamino)phenyl]-19-norpregna-4,9-diene-3,20-dione]", "values": [{"measurement": "binding affinity for the human progesterone receptor (isoform A), in words", "setting": "[9]", "result": "high binding affinity"}, {"measurement": "BINDING AFFINITY Progester, figure in ( ): relative binding affinity of the human isoform A progesterone receptor", "setting": "[9]", "result": 237}, {"measurement": "postcoital contraceptive activity relative to the standard, in words", "setting": "[11]", "result": "about half as effective as compound 69B"}]}, {"smiles": "CC(=O)OCC(=O)[C@@]1(OC(C)=O)CC[C@H]2[C@@H]3CCC4=CC(=O)CCC4=C3[C@@H](c3ccc(C(C)=O)cc3)C[C@@]21C", "note": "[Compound 106b, 17α,21-Diacetoxy-11β-(4-acetylphenyl)19-norpregna-4,9-diene-3,20-dione]", "values": [{"measurement": "BINDING AFFINITY Progester, figure in ( ): relative binding affinity of the human isoform A progesterone receptor", "setting": "[9]", "result": 172}]}]}
